Data reported in patent US8952024B2, “Herbicidal pyrimidone derivatives” (E I du Pont de Nemours and Company, priority 2009, dated 2015).

Key:
Experiment in all cases: Test D pre-/postemergence plant response
Assay type in all cases: in vivo
[1] = tested on: nutsedge (purple nutsedge, Cyperus rotundus)
Procedure, shortened: (§1)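 Visual 0–100 scoring (100 = complete control) versus untreated controls after 14–21 greenhouse days. Compounds, formulated in surfactant-containing non-phytotoxic solvent, were applied preemergence to seeded loam/sand and postemergence to 2–18 cm plants (1–4 leaves).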

[2] = tested on: prickly sida (Sida spinosa)
Procedure, shortened: as §1

[3] = tested on: bluegrass (annual bluegrass, Poa annua)
Procedure, shortened: as §1

[4] = tested on: field bindweed (Convolvulus arvensis)
Procedure, shortened: as §1

[5] = tested on: morningglory (pitted morningglory, Ipomoea lacunosa)
Procedure, shortened: as §1

[6] = tested on: quackgrass (Elytrigia repens)
Procedure, shortened: as §1

[7] = tested on: Russian thistle (Salsola kali)
Procedure, shortened: as §1

[8] = tested on: purslane (common purslane, Portulaca oleracea)
Procedure, shortened: as §1

[9] = tested on: large crabgrass (Digitaria sanguinalis)
Procedure, shortened: as §1

[10] = tested on: signalgrass (broadleaf signalgrass, Brachiaria platyphylla)
Procedure, shortened: as §1

[11] = tested on: sandbur (southern sandbur, Cenchrus echinatus)
Procedure, shortened: as §1

[12] = tested on: ragweed (common ragweed, Ambrosia elatior)
Procedure, shortened: as §1

[13] = tested on: black mustard (Brassica nigra)
Procedure, shortened: as §1

[14] = tested on: Italian ryegrass (Lolium multiflorum)
Procedure, shortened: as §1

[15] = tested on: chickweed (common chickweed, Stellaria media); conditions: Postemergence, 31 g ai/ha; scale 0 to 100
Procedure, shortened: as §1

[16] = tested on: spanishneedles (Bidens bipinnata)
Procedure, shortened: as §1

[17] = Postemergence, 16 g ai/ha, scale 0 to 100
[18] = Postemergence, 31 g ai/ha, scale 0 to 100
[19] = Postemergence, 125 g ai/ha, scale 0 to 100 (0 no effect, 100 complete control)
[20] = Postemergence, 62 g ai/ha, scale 0 to 100 (0 no effect, 100 complete control)
[21] = Preemergence, 16 g ai/ha, scale 0 to 100, 0 no effect, 100 complete control
[22] = Preemergence, 31 g ai/ha, scale 0 to 100 (0 no effect, 100 complete control)
[23] = Preemergence, 62 g ai/ha, scale 0 to 100
[24] = Preemergence, 125 g ai/ha, scale 0 to 100

O=C1CCCC(O)=C1C(=O)c1cnc(-c2cccnc2)n(-c2ccccc2)c1=O [Compound 113, 5-[(2-hydroxy-6-oxo-1-cyclohexen-1-yl)carbonyl]-3-phenyl-2-(3-pyridinyl)-4(3H)-pyrimidone]
Plant response rating, Nutsedge, Purple [1, 17]: 0
Plant response rating, Nutsedge, Purple [1, 18]: 10
Plant response rating, Nutsedge, Purple [1, 19]: 50
Plant response rating, Nutsedge, Purple [1, 20]: 35
Plant response rating, Nutsedge, Purple [1, 21]: 0
Plant response rating, Nutsedge, Purple [1, 22]: 10
Plant response rating, Nutsedge, Purple [1, 23]: 20
Plant response rating, Nutsedge, Purple [1, 24]: 80
Plant response rating, Prickly Sida [2, 17]: 50
Plant response rating, Prickly Sida [2, 18]: 60
Plant response rating, Prickly Sida [2, 19]: 70
Plant response rating, Prickly Sida [2, 20]: 70
Plant response rating, Prickly Sida [2, 21]: 0
Plant response rating, Prickly Sida [2, 22]: 35
Plant response rating, Prickly Sida [2, 23]: 70
Plant response rating, Prickly Sida [2, 24]: 90
Plant response rating, Bluegrass [3, 17]: 0
Plant response rating, Bluegrass ([3]; Postemergence, 31 g ai/ha, scale 0 to 100 (0 no effect, 100 complete control)): 0
Plant response rating, Bluegrass [3, 19]: 0
Plant response rating, Bluegrass [3, 20]: 0
Plant response rating, Bluegrass [3, 21]: 0
Plant response rating, Bluegrass [3, 22]: 0
Plant response rating, Bluegrass [3, 23]: 0
Plant response rating, Bluegrass [3, 24]: 0
Plant response rating, Field Bindweed [4, 17]: 50
Plant response rating, Field Bindweed [4, 18]: 65
Plant response rating, Field Bindweed [4, 20]: 65
Plant response rating, Field Bindweed [4, 21]: 0
Plant response rating, Field Bindweed [4, 22]: 20
Plant response rating, Field Bindweed [4, 23]: 65
Plant response rating, Field Bindweed [4, 24]: 90
Plant response rating, Morningglory [5, 17]: 50
Plant response rating, Morningglory [5, 18]: 60
Plant response rating, Morningglory [5, 19]: 90
Plant response rating, Morningglory [5, 20]: 90
Plant response rating, Morningglory [5, 21]: 60
Plant response rating, Morningglory [5, 22]: 60
Plant response rating, Morningglory [5, 23]: 60
Plant response rating, Morningglory [5, 24]: 90
Plant response rating, Quackgrass [6, 17]: 0
Plant response rating, Quackgrass [6, 18]: 0
Plant response rating, Quackgrass [6, 19]: 30
Plant response rating, Quackgrass [6, 20]: 20
Plant response rating, Quackgrass [6, 21]: 0
Plant response rating, Quackgrass [6, 22]: 0
Plant response rating, Quackgrass [6, 24]: 0
Plant response rating, Russian Thistle [7, 17]: 0
Plant response rating, Russian Thistle [7, 18]: 0
Plant response rating, Russian Thistle [7, 19]: 20
Plant response rating, Russian Thistle [7, 20]: 20
Plant response rating, Russian Thistle [7, 21]: 0
Plant response rating, Russian Thistle [7, 22]: 65
Plant response rating, Russian Thistle [7, 24]: 100
Plant response rating, Purslane [8, 17]: 30
Plant response rating, Purslane [8, 18]: 30
Plant response rating, Purslane [8, 19]: 75
Plant response rating, Purslane [8, 20]: 50
Plant response rating, Purslane [8, 21]: 90
Plant response rating, Purslane [8, 22]: 100
Plant response rating, Purslane [8, 23]: 100
Plant response rating, Purslane [8, 24]: 100
Plant response rating, Crabgrass, Large [9, 17]: 60
Plant response rating, Crabgrass, Large [9, 18]: 60
Plant response rating, Crabgrass, Large [9, 19]: 70
Plant response rating, Crabgrass, Large [9, 20]: 70
Plant response rating, Crabgrass, Large [9, 21]: 20
Plant response rating, Crabgrass, Large [9, 22]: 30
Plant response rating, Crabgrass, Large [9, 23]: 95
Plant response rating, Crabgrass, Large [9, 24]: 95
Plant response rating, Signalgrass [10, 17]: 5
Plant response rating, Signalgrass [10, 18]: 40
Plant response rating, Signalgrass [10, 19]: 75
Plant response rating, Signalgrass [10, 20]: 60
Plant response rating, Signalgrass [10, 21]: 0
Plant response rating, Signalgrass [10, 22]: 0
Plant response rating, Signalgrass [10, 24]: 90
Plant response rating, Sandbur [11, 17]: 5
Plant response rating, Sandbur [11, 18]: 10
Plant response rating, Sandbur [11, 19]: 60
Plant response rating, Sandbur [11, 20]: 60
Plant response rating, Sandbur [11, 21]: 0
Plant response rating, Sandbur [11, 22]: 0
Plant response rating, Sandbur [11, 24]: 90
Plant response rating, Ragweed [12, 17]: 70
Plant response rating, Ragweed [12, 18]: 70
Plant response rating, Ragweed [12, 19]: 80
Plant response rating, Ragweed [12, 20]: 75
Plant response rating, Ragweed [12, 21]: 0
Plant response rating, Ragweed [12, 22]: 50
Plant response rating, Ragweed [12, 24]: 98
Plant response rating, Black Mustard [13, 17]: 100
Plant response rating, Black Mustard [13, 19]: 100
Plant response rating, Black Mustard [13, 20]: 100
Plant response rating, Black Mustard [13, 21]: 0
Plant response rating, Black Mustard [13, 22]: 0
Plant response rating, Black Mustard [13, 23]: 80
Plant response rating, Black Mustard [13, 24]: 100
Plant response rating, Ryegrass, Italian [14, 17]: 0
Plant response rating, Ryegrass, Italian [14, 18]: 20
Plant response rating, Ryegrass, Italian [14, 19]: 50
Plant response rating, Ryegrass, Italian [14, 20]: 35
Plant response rating, Ryegrass, Italian [14, 21]: 0
Plant response rating, Ryegrass, Italian [14, 22]: 0
Plant response rating, Ryegrass, Italian [14, 24]: 20
Plant response rating, Ryegrass, Italian ([14]; Preemergence, rate not given, scale 0 to 100, 0 no effect, 100 complete control): 0
Plant response rating, Chickweed [15]: 70
Plant response rating, Spanishneedles [16, 17]: 35
Plant response rating, Spanishneedles [16, 18]: 35
Plant response rating, Spanishneedles [16, 19]: 60
Plant response rating, Spanishneedles [16, 20]: 50
Plant response rating, Spanishneedles [16, 21]: 0
Plant response rating, Spanishneedles [16, 22]: 0
Plant response rating, Spanishneedles [16, 24]: 95
